Reference: patent US6068845A, “Inhibition of abnormal accumulation of extra-cellular matrices” (Institute for Advanced Skin Research Inc., priority 1996, dated 2000)

Columns and labels:
[1] = test system: Human newborn dermal fibroblasts (NB1RBG); test: Inhibitory activity on the extracellular matrices production of fibroblasts with TGF-β, dye (Crystal Violet) staining method; format: cell-based; conditions: Fibroblast, 120 h
Protocol: (§1) Human newborn dermal fibroblasts (NB1RBG) (obtained from the Institute of Physical and Chemical Research) was subcultured in DMEM medium containing 10 % fetal bovine serum for provision to the test.
(§2) 2×10^4 NB1RBG cells per well were incubated in flat-bottomed 96-well microtiter plates containing 100 μl/well of each of DMEM media each containing 1 % fetal bovine serum and containing one of the test samples and TGF-β (5 ng/ml), at 37° C.-5 % CO2 for 5 days. A group not containing any test sample or TGF-β was also prepared, and incubation thereof was carried out at the same time with the test groups. After the completion of the incubation, the flat-bottomed 96-well microtiter plates on which the adhered cells and the extracellular matrices were adhered were stained with the following two methods for evaluation, respectively.
First, the culture supernatants were removed, the wells were washed with phosphate-buffered physiological saline, 100 μl/well of 0.05 % Crystal Violet-20 % ethanol staining solution was added, and the mixtures were left alone at room temperature for 10 minutes. Then, the plates were washed with flowing water and air dried, the remaining Crystal Violet was dissolved with 100 μl/well of methanol, and the absorbance at O.D. 570-690 was measured by a plate reader. The inhibition percentages of the production of extracellular matrices in an unstimulating state and in a TGF-β-stimulating state were calculated according to the following equations.
(§3) The inhibition percentage of the production of extracellular matrices in an unstimulating state (%) [formula] The inhibition percentage of the production of extracellular matrices in a TGF-β-stimulating state (%) [formula] A: The absorbance of a group containing only the solvent with which the test sample was prepared, and not containing TGF-β.
B: The absorbance of a group containing a test sample, but not containing TGF-β.
C: The absorbance of a group containing the solvent with which the test sample was prepared, and TGF-β.
D: The absorbance of a group containing a test sample and TGF-β.

[2] = test system: Human newborn dermal fibroblasts (NB1RBG); test: Inhibitory activity on the extracellular matrices production of fibroblasts with TGF-β, collagen staining method (anti-human type I collagen antibody; type I collagen sedimentation); format: cell-based; conditions: Fibroblast, 120 h
Source text: Test samples used were Intin-koo extract (Preparation example 1), Forsythia suspensa VAHL. extract (Preparation example 2), Sophora flavescens AITON. extract (Preparation example 3), Rheum palmatum L. extract (Preparation example 4), Glycyrrhiza alabra L. var. glandulifera Regel et Herder extract (Preparation example 5), Goboosi extract with water (Preparation example 6), Goboosi extract with ethanol (Preparation example 7), zhimu extract (Preparation example 8), Dokkatu extract (Preparation example 9), mutong extract (Preparation example 10), soozyutu extract (Preparation example 11), o-phenanthroline (produced by Dojin Chemical Co.: special grade chemical), 2,2'-dipyridyl (produced by Aldrich Chemical Co.) and malotilate (extracted from Kantec tablet produced by Daiichi Pharmaceutical Co.).
as §1, §2
(b) Staining with anti-collagen antibody
First, the culture supernatants were removed, the wells were washed with phosphate-buffered physiological saline, and fixation was carried out with methanol under ice cooling for 10 minutes. Then, blocking was made with milk protein solution, Block Ace (produced by DAINIPPON PHARMACEUTICAL CO.), and rabbit anti-human type I collagen antibody (produced by CHEMICON CO.), biotin-labeled anti-rabbit immunoglobulin (produced by Amersham CO.) and avidin-biotin-labeled peroxidase complex (produced by Amersham CO.) were successively reacted to enzyme-label the sedimented type I collagen. 100 μl/well of 0.1 M citric acid phosphate buffer (pH 4.0) containing 2.5 mM 2,2'-azino-bis(3-ethylbenzothia-zoline-6-sulfate) (produced by SIGMA CO.) and 0.015 % H2 O2 was reacted therewith, and one hour later, absorbance at O.D. 415 was measured by a plate reader. The inhibition percetages of the type I collagen sedimentation in an unstimulating state and in a TGF-β-stimulating state were calculated according to the following equations.
as §3, with “matrices in TGF-β-stimulating state” for “matrices in a TGF-β-stimulating state”, “(%) [formula] E: The absorbance” for “(%) [formula] A: The absorbance”
F: The absorbance of a group containing a test sample, but not containing TGF-β.
G: The absorbance of a group containing the solvent with which the test sample was prepared, and TGF-β.
H: The absorbance of a group containing a test sample and TGF-β.

[3] = test system: dermal fibrosis induced with bleomycin; test: Inhibitory activity on the production of collagen in dermal fibrosis model induced with bleomycin; format: in vivo, Hos:hr-1 male hairless mice; conditions: bleomycin 10 mg/kg/day i.p. 10 days, day 30
Protocol: Hos:hr-1 male hairless mice (5 weeks old) were used.
10 mg/kg/day portions of bleomycin were intraperitoneally administered to the hairless mice for 10 successive days. 0.1 ml Portions of ethanol solutions or Vaseline ointments of the Sophora flavescens AITON. extraction, the Rheum palmatum L. extract, o-phenanthroline and malotilate were applied onto the back skins every day from the start of the test, respectively. 30 Days later from the start of the test, the back skins were excised. The amounts of collagen in the excised skins were assayed using hydroxyproline amount as an index.
The inhibition percentage of dermal fibrosis with bleomycin was caluculated according to the following equation.
Inhibition percentage of dermal fibrosis (%) [formula] J: Hydroxyproline amount in the untreated group K: Hydroxyproline amount in the group of bleomycin administration+application of the base alone
L: Hydroxyproline amount in the group of bleomycin administration+application of the drug

[4] = read-out: Inhibition percentage of the extracellular matrices production, dye staining method, TGF-β (+)
[5] = read-out: Inhibition percentage of the extracellular matrices production, dye staining method, TGF-β (-)
[6] = read-out: Inhibition percentage of the extracellular matrices production, collagen staining method, TGF-β (+)
[7] = read-out: Inhibition percentage of the extracellular matrices production, collagen staining method, TGF-β (-)
[8] = 1 × 10^-4 M, TGF-β 5 ng/ml, 5 days, read-out: Inhibition percentage of the extracellular matrices production, dye staining method, TGF-β (+)
[9] = 1 × 10^-4 M, unstimulated, 5 days, read-out: Inhibition percentage of the extracellular matrices production, dye staining method, TGF-β (-)
[10] = 1 × 10^-5 M, TGF-β 5 ng/ml, 5 days, read-out: Inhibition percentage of the extracellular matrices production, dye staining method, TGF-β (+)
[11] = 1 × 10^-5 M, unstimulated, 5 days, read-out: Inhibition percentage of the extracellular matrices production, dye staining method, TGF-β (-)
[12] = 1 × 10^-6 M, TGF-β 5 ng/ml, 5 days, read-out: Inhibition percentage of the extracellular matrices production, dye staining method, TGF-β (+)
[13] = 1 × 10^-6 M, unstimulated, 5 days, read-out: Inhibition percentage of the extracellular matrices production, dye staining method, TGF-β (-)
[14] = 1 × 10^-4 M, TGF-β 5 ng/ml, 5 days, read-out: Inhibition percentage of the extracellular matrices production, collagen staining method, TGF-β (+)
[15] = 1 × 10^-4 M, unstimulated, 5 days, read-out: Inhibition percentage of the extracellular matrices production, collagen staining method, TGF-β (-)
[16] = 1 × 10^-5 M, TGF-β 5 ng/ml, 5 days, read-out: Inhibition percentage of the extracellular matrices production, collagen staining method, TGF-β (+)
[17] = 1 × 10^-5 M, unstimulated, 5 days, read-out: Inhibition percentage of the extracellular matrices production, collagen staining method, TGF-β (-)
[18] = 1 × 10^-6 M, TGF-β 5 ng/ml, 5 days, read-out: Inhibition percentage of the extracellular matrices production, collagen staining method, TGF-β (+)
[19] = 1 × 10^-6 M, unstimulated, 5 days, read-out: Inhibition percentage of the extracellular matrices production, collagen staining method, TGF-β (-)

SMILES | inhibition at 100 µM [1, 8] [%] | inhibition at 100 µM [1, 9] [%] | inhibition at 10 µM [1, 10] [%] | inhibition at 10 µM [1, 11] [%] | inhibition at 1 µM [1, 12] [%] | inhibition at 1 µM [1, 13] [%] | inhibition at 100 µM [2, 14] [%] | inhibition at 100 µM [2, 15] [%] | inhibition at 10 µM [2, 16] [%] | inhibition at 10 µM [2, 17] [%] | inhibition at 1 µM [2, 18] [%] | inhibition at 1 µM [2, 19] [%] | Hydroxyproline amount per weight of dried skin ([3]; 5% applied to back skin daily) [µg/mg] | Inhibition percentage of dermal fibrosis ([3]; 5% applied to back skin daily) [%] | Hydroxyproline amount per weight of dried skin ([3]; 10% applied to back skin daily) [µg/mg] | Inhibition percentage of dermal fibrosis ([3]; 10% applied to back skin daily) [%] | other results
c1ccc(-c2ccccn2)nc1 [2,2'-Dipyridyl, 2,2'-dipyridyl] | – | – | – | – | – | – | – | – | – | – | – | – | – | – | – | – | inhibition at 1 µM [1, 4]: 7%; inhibition at 10 µM [1, 4]: 7%; inhibition at 100 µM [1, 4]: 84%; inhibition at 1 µM [1, 5]: 5%; inhibition at 10 µM [1, 5]: 25%; inhibition at 100 µM [1, 5]: 44%; inhibition at 1 µM [2, 6]: 14%; inhibition at 10 µM [2, 6]: 30%; inhibition at 100 µM [2, 6]: 77%; inhibition at 1 µM [2, 7]: 10%; inhibition at 10 µM [2, 7]: 15%; inhibition at 100 µM [2, 7]: 18%
CC(C)OC(=O)C(C(=O)OC(C)C)=C1SC=CS1 [Malotilate, malotilate] | 92 | 20 | 53 | 23 | 18 | 21 | 98 | 7 | 68 | 6 | 20 | 9 | 1.66 ± 0.25 | 52.2 | 1.47 ± 0.19 | 80.6 | –
c1cnc2c(c1)ccc1cccnc12 [o-Phenanthroline, o-phenanthroline] | 95 | 0 | 86 | 0 | 1 | 7 | 100 | 20 | 90 | 16 | 27 | 11 | 1.72 ± 0.16 | 43.3 | 1.43 ± 0.10 | 86.6 | –
